{"source": "ChEMBL document CHEMBL1201862", "about": "“PubChem BioAssay data set” (2004)", "key": {"[1]": {"molecular_target": "Beta-2 adrenergic receptor (Homo sapiens, UniProt P07550)", "sequence (P07550 whole entry)": "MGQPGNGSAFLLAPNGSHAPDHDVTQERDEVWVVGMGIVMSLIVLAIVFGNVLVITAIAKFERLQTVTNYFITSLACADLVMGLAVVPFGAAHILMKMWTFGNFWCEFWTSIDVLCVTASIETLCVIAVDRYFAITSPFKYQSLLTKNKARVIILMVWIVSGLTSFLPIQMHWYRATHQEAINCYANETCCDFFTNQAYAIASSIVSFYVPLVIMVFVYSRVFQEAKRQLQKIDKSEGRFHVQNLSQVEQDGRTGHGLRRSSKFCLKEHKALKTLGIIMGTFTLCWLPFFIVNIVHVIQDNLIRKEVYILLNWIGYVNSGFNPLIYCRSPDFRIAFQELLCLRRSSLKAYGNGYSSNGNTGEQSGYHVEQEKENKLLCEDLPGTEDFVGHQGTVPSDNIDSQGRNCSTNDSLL", "experiment": "beta2AR agonists driving receptor internalization, dose response, cell-based, FAP fluorogen, flow cytometry, cherry pick 1 (AID 588763)", "format": "functional"}, "Phospholipase D1": {"molecular_target": "T1, Phospholipase D1 (Homo sapiens, UniProt Q13393)", "T1 sequence (Q13393 whole entry)": "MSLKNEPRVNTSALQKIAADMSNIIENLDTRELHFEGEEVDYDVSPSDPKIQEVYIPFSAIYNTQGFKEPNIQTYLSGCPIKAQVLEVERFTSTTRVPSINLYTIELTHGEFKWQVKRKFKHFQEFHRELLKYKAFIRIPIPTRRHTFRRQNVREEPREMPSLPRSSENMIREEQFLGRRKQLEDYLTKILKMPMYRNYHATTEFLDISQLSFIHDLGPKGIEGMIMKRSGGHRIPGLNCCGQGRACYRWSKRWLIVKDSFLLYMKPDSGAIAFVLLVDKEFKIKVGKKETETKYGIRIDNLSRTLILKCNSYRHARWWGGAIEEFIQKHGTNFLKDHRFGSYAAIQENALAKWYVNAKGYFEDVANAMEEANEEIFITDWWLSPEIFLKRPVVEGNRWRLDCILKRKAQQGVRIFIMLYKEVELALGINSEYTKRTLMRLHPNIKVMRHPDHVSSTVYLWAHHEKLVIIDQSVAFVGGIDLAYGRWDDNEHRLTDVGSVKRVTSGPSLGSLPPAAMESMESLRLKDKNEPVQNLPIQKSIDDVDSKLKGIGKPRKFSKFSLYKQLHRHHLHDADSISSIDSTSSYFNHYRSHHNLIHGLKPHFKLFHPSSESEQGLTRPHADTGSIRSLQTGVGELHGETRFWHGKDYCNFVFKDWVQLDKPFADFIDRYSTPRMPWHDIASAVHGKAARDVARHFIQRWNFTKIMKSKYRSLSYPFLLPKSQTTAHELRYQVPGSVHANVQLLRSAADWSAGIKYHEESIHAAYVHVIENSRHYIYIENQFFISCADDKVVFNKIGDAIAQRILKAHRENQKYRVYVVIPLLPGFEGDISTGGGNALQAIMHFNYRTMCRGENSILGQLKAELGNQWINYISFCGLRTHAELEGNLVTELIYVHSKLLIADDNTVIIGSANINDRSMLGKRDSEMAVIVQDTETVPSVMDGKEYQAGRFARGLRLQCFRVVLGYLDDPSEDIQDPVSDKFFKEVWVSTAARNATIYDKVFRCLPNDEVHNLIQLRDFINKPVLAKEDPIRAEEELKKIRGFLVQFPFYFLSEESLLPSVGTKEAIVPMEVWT", "experiment": "PLD1 inhibitor potency in cells, dose response (AID 602151);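 note: cellular PLD1 assay in Calu-1 cells stimulated with PMA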", "format": "functional"}, "Phospholipase D2": {"molecular_target": "Phospholipase D2 (Homo sapiens, UniProt O14939)", "experiment": "PLD2 inhibitor potency in cells, dose response (AID 602147);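 note: cellular assay in HEK293 cells overexpressing GFP-tagged PLD2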", "format": "functional"}, "HEK293": {"system": "HEK293", "experiment": "cells", "format": "functional, cell-based", "settings": "Homo sapiens"}, "[2]": {"molecular_target": "T2, Nuclear receptor subfamily 0 group B member 1 (Homo sapiens, UniProt P51843)", "T2 sequence (P51843 whole entry)": "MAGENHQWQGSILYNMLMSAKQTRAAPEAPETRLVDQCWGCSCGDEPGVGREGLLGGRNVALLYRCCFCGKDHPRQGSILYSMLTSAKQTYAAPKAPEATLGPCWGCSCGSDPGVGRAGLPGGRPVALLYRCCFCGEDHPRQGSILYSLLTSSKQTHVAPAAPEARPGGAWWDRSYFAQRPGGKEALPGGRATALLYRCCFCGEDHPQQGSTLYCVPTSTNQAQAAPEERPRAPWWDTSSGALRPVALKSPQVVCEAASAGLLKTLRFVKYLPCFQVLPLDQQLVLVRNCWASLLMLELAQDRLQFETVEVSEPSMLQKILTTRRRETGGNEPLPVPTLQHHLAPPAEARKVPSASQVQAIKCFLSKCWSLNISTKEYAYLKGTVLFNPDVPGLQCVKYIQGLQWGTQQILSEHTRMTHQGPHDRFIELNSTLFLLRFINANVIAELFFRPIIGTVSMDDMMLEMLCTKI", "experiment": "Luminescence-based cell-based high throughput dose response assay for inhibitors of the orphan nuclear receptor subfamily 0, group B, member 1 (DAX1; NR0B1). [Related pubchem assays (depositor defined):AID504766, AID504790]", "format": "functional"}, "Vero": {"system": "Vero", "experiment": "Vero cell cytotoxicity, cytotoxicity control for flavivirus capping enzyme inhibitors (AID 588742)", "format": "functional", "settings": "Chlorocebus sabaeus"}, "Protein Rev": {"molecular_target": "Protein Rev (Human immunodeficiency virus type 1 group M subtype B (isolate HXB2)(HIV-1), UniProt P04618)", "sequence (P04618 whole entry)": "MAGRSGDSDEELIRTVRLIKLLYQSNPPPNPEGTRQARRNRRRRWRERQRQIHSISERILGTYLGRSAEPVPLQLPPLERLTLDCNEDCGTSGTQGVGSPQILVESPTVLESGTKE", "experiment": "inhibitors of Rev binding to RRE RNA, dose response, biochemical, fluorescence polarization, HIV-1 (AID 434976)", "set-up": "species or system Human immunodeficiency virus 1"}, "[3]": {"molecular_target": "Dual specificity tyrosine-phosphorylation-regulated kinase 1A (Rattus norvegicus, UniProt Q63470)", "format": "biochemical, Homo sapiens"}, "[4]": {"molecular_target": "Female germline-specific tumor suppressor gld-1 (Caenorhabditis elegans, UniProt Q17339)", "experiment": "inhibitors of GLD-1 binding to TGE RNA, dose response, biochemical, fluorescence polarization, C. elegans (AID 2802);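 note: fluorescence polarization of labeled TGE RNA bound by purified gld-1 protein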"}, "Genome polyprotein": {"molecular_target": "Genome polyprotein (dengue virus type 2, UniProt P29990)", "experiment": "Dengue-2 NS5 methyltransferase inhibitors, primary screen, biochemical, confirmation dose response (AID 588689)", "format": "functional"}, "[5]": {"experiment": "microbe, parasite or virus in culture", "format": "functional", "settings": "Mycobacterium tuberculosis"}, "[6]": {"molecular_target": "Voltage-gated inwardly rectifying potassium channel KCNH2 (Homo sapiens, UniProt Q12809)", "settings": "Potency"}, "[7]": {"molecular_target": "Dual specificity protein kinase CLK1 (Homo sapiens, UniProt P49759)", "experiment": "CLK1 kinase inhibitors, off-target check, dose response, selectivity assay for Dyrk1A inhibitor project, biochemical, cherry-picked samples (AID 588811)"}, "[8]": {"molecular_target": "Photoreceptor-specific nuclear receptor (Homo sapiens, UniProt Q9Y5X4)", "format": "functional"}, "[9]": {"experiment": "C. albicans growth with fluconazole, confirmation, fluorescence, retest (AID 2467)", "format": "functional, cell-based"}, "fMet-Leu-Phe receptor": {"molecular_target": "fMet-Leu-Phe receptor (Homo sapiens, UniProt P21462)", "experiment": "FPR ligands, dose response (AID 519)", "format": "functional"}, "[10]": {"experiment": "NIH-3T3 fibroblast cytotoxicity, dose response, cytotoxicity control, cell-based, fluorescence, Alamar Blue, secondary assay (AID 2327);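 note: NIH-3T3 mouse fibroblasts cultured with fluconazole at 8 µg/mL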", "format": "functional"}, "Cytochrome P450 3A4": {"molecular_target": "Cytochrome P450 3A4 (Homo sapiens, UniProt P08684)", "sequence (P08684 whole entry)": "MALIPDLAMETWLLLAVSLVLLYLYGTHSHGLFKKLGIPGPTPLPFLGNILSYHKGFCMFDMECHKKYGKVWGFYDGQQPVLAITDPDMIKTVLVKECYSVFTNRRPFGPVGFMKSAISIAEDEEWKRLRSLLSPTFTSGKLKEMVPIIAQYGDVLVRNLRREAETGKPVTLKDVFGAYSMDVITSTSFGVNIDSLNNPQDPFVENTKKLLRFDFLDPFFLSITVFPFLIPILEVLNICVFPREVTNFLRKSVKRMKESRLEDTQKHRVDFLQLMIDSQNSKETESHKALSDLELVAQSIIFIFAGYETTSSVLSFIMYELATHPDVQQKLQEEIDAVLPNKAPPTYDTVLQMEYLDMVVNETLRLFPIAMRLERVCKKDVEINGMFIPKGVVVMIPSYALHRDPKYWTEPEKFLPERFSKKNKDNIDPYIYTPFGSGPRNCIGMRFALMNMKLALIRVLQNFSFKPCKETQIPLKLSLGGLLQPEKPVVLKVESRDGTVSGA"}, "[11]": {"molecular_target": "Peroxisome proliferator-activated receptor gamma/Nuclear receptor corepressor 2 (Homo sapiens, UniProt P37231+Q9Y618)", "format": "functional"}, "[12]": {"molecular_target": "Peroxisome proliferator-activated receptor gamma/Nuclear receptor coactivator 1 (Homo sapiens, UniProt P37231)", "sequence (P37231 whole entry)": "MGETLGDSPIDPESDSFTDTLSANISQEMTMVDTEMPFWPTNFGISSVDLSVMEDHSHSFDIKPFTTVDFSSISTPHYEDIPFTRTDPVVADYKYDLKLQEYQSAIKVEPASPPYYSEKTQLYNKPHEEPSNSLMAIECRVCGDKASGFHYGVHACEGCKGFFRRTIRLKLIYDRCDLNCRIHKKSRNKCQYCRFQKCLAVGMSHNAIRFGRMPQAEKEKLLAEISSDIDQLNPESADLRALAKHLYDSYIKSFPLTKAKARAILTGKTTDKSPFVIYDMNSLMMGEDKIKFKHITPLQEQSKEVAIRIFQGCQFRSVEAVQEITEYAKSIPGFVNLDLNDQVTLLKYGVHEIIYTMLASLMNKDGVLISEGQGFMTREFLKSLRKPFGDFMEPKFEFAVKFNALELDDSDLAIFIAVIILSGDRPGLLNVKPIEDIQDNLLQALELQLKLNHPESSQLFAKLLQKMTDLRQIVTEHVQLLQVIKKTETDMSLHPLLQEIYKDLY", "sequence (Q15788 whole entry, further chain)": "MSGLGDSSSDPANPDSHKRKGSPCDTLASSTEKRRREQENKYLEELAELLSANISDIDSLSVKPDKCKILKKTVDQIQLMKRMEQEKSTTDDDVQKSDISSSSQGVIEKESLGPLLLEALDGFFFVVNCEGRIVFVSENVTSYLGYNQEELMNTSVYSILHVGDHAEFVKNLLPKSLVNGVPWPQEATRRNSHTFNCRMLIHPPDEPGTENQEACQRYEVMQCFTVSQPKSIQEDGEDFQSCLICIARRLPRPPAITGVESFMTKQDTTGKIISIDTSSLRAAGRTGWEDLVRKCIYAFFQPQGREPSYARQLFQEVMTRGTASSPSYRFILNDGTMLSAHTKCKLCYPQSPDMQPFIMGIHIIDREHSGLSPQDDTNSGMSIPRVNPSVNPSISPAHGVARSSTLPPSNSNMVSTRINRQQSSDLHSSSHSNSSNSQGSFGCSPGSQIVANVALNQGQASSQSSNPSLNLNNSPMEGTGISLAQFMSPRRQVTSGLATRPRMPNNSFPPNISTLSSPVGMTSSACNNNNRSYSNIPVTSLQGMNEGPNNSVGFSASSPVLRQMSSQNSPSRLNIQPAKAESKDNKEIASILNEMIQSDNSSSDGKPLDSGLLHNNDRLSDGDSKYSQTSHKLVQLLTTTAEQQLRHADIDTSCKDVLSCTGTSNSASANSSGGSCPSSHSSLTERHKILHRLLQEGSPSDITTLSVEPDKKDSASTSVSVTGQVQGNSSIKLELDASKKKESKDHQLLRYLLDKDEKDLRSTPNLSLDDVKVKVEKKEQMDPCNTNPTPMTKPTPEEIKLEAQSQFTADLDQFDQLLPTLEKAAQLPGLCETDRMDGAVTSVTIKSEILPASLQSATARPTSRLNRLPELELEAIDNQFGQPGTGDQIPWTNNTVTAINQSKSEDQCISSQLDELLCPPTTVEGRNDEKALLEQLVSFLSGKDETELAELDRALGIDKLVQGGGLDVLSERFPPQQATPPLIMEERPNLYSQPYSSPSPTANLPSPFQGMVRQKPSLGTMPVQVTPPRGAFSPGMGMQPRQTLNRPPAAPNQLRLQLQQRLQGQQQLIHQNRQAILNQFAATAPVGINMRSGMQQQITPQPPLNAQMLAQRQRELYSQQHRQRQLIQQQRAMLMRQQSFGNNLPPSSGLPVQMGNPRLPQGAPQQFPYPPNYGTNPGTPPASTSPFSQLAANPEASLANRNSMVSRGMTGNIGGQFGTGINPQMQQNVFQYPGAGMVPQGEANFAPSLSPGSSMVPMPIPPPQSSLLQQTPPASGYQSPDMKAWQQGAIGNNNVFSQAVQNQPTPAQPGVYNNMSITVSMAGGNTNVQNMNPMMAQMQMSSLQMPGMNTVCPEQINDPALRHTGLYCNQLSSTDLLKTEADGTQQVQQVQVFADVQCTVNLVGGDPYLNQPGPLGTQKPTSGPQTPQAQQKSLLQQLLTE", "experiment": "TR-FRET dose response biochemical High Throughput Screening assay for agonists of the steroid receptor coactivator 1 (SRC-1) recruitment by the peroxisome proliferator-activated receptor gamma (PPAR gamma): non-selective agonists. [Related pubchem assays (depositor defined):AID1300, AID1808, AID504735, AID631]", "format": "protein assay"}, "[13]": {"molecular_target": "Peroxisome proliferator-activated receptor gamma/Nuclear receptor coactivator 2 (Homo sapiens, UniProt P37231)", "sequence (P37231 whole entry)": "as the sequence (P37231 whole entry) above", "sequence (Q15596 whole entry, further chain)": "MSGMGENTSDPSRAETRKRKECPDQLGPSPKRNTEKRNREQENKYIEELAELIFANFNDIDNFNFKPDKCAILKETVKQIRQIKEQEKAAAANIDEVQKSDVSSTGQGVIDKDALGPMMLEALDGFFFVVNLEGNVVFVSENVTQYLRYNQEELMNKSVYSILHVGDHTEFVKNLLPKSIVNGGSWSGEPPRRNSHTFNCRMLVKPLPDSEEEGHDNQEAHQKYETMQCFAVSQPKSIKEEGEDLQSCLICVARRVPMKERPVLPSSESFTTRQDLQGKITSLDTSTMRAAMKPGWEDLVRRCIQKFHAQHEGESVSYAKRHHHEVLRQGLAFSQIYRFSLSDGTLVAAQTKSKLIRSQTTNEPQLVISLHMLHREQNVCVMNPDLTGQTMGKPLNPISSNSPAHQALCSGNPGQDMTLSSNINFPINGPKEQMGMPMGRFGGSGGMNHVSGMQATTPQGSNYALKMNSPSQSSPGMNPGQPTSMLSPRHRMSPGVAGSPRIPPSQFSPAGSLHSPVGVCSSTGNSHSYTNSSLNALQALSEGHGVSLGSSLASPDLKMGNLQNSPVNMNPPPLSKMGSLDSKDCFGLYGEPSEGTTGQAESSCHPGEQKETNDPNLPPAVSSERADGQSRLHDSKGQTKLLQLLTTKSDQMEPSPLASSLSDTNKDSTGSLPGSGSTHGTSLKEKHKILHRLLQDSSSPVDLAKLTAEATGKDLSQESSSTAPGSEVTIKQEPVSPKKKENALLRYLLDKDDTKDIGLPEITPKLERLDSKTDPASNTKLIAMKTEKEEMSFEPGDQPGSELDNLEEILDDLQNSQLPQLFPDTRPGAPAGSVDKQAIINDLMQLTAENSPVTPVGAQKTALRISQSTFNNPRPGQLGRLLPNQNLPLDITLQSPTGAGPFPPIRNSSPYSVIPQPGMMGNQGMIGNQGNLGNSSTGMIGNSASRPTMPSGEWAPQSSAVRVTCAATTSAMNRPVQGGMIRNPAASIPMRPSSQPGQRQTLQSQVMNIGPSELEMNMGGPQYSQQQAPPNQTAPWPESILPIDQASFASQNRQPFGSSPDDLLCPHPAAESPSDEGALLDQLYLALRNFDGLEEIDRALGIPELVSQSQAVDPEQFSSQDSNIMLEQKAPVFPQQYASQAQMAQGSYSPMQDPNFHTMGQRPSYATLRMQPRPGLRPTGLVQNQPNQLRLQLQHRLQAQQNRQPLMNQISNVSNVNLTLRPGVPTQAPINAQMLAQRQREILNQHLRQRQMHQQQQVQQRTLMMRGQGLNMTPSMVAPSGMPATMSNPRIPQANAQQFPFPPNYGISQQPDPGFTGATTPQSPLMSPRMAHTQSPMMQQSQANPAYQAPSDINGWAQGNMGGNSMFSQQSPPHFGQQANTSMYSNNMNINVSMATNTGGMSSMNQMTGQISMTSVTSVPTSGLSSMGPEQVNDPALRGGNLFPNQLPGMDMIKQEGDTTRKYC", "experiment": "(§1) TR-FRET dose response biochemical High Throughput Screening assay for agonists of the steroid receptor coactivator 2 (SRC-2) recruitment by the peroxisome proliferator-activated receptor gamma (PPAR gamma): non-selective agonists. [Related pubchem assays: 1297, 1032 ]", "format": "functional"}, "Cytochrome P450 2C19": {"molecular_target": "Cytochrome P450 2C19 (Homo sapiens, UniProt P33261)", "experiment": "Cytochrome panel assay with activity outcomes. Panel member name: p450-cyp2c19 Compounds with AC50 equal or less than 10 uM are considered active", "format": "functional", "settings": "read-out: AC50"}, "[14]": {"molecular_target": "Peroxisome proliferator-activated receptor gamma/Nuclear receptor coactivator 3 (Homo sapiens, UniProt P37231)", "experiment": "as §1, with “3 (SRC-3)” for “2 (SRC-2)”, “1301 (Confirmation screen.), 1048 (Primary screen.)]” for “1297, 1032 ]”", "format": "functional"}, "[15]": {"molecular_target": "ATP-dependent molecular chaperone HSP82 (Candida albicans (strain WO-1) (Yeast), UniProt C4YTQ8)", "experiment": "loss of DOC-induced GRE-beta-galactosidase reporter signal, dose response, Hsp90 inhibitor project, S. cerevisiae, luminescence (AID 2400)", "format": "functional, cell-based"}, "[16]": {"molecular_target": "Serine/threonine-protein phosphatase (Candida dubliniensis (strain CD36 / CBS 7987 / NCPF 3949 / NRRLY-17841) (Yeast), UniProt B9W6M3)", "experiment": "calcineurin pathway inhibitors in yeast reporter, dose response, S. cerevisiae, CDRE-lacZ, luminescence, secondary (AID 2388)", "format": "functional, cell-based"}, "Candida albicans [17]": {"system": "Candida albicans", "experiment": "growth inhibition of azole-resistant C. albicans, dose response, CaCi-8 strain, Alamar Blue, dry powder, set 2 (AID 488909)", "format": "functional, organism-based"}, "Candida albicans [18]": {"system": "Candida albicans", "experiment": "growth inhibition of resistant C. albicans, dose response, CaCi-8 strain, fluconazole, dry powder, set 4 (AID 488950)", "format": "functional, organism-based"}, "Candida albicans [19]": {"system": "Candida albicans", "experiment": "fluconazole resistance reversal in C. albicans, dose response, CaCi-2 strain, Alamar Blue, dry powder, set 4 (AID 488943)", "format": "functional, organism-based"}, "Candida albicans [20]": {"system": "Candida albicans", "experiment": "C. albicans growth inhibition with fluconazole, dose response, antifungal resistance reversal project, CaCi-2 strain, Alamar Blue, dry powder, set 2 (AID 488930)", "format": "functional, organism-based"}}, "note": "Counter-ions that a name gives are not always drawn. Active and inactive are the calls of the source.", "data": [{"smiles": "O=C(Cn1nc(-c2ccccc2)ccc1=O)Nc1ccc(NC(=O)c2ccccn2)cc1", "values": [{"measurement": "EC50", "setting": "[1]", "value": "0.00816 µM (active)"}]}, {"smiles": "C[C@@H](CN1CCC(n2c(=O)[nH]c3ccc(F)cc32)CC1)NC(=O)c1ccc(Cl)cc1", "values": [{"measurement": "IC50", "setting": "Phospholipase D1", "value": "0.004 µM (active)"}, {"measurement": "IC50", "setting": "Phospholipase D2", "value": "0.434 µM (active)"}]}, {"smiles": "Cc1ccccc1NC(=O)Nc1nc2ccc(S(C)(=O)=O)cc2s1", "values": [{"measurement": "IC50", "setting": "HEK293", "value": "> 67.5 µM (inactive)"}, {"measurement": "IC50", "setting": "[2]", "value": "> 67.5 µM (inactive)"}]}, {"smiles": "COc1cc(O)cc2cc3c(c(O)c12)C(=O)CC(C)(O)O3", "note": "(centres undefined)", "values": [{"measurement": "CC50", "setting": "Vero", "value": "> 40 µM (active)"}, {"measurement": "IC50", "setting": "Protein Rev", "value": "16.2 µM (not active)"}, {"measurement": "AC50", "setting": "[3]", "value": "2.92 µM (active)"}, {"measurement": "IC50", "setting": "[4]", "value": "2.96 µM (active)"}, {"measurement": "IC50", "setting": "Genome polyprotein", "value": "38.1 µM (active)"}]}, {"smiles": "CN1CCN2c3ccccc3Cc3ccccc3C2C1", "note": "(centres undefined) [MIANSERIN HYDROCHLORIDE]", "values": [{"measurement": "CC50", "setting": "[5]", "value": "> 40 µM (active)"}, {"measurement": "AC50", "setting": "[6]", "value": "35.5 µM (inconclusive)"}]}, {"smiles": "Brc1ccc(CNc2nccc(-c3ccc4c(c3)OCO4)n2)cc1Br", "values": [{"measurement": "AC50", "setting": "[7]", "value": "0.0049 µM (active)"}]}, {"smiles": "COc1cccc(C2C(C(=O)c3cc4ccccc4o3)=C(O)C(=O)N2c2cc(C)on2)c1OC", "note": "(centres undefined)", "values": [{"measurement": "IC50", "setting": "[8]", "value": "> 39.8 µM (not active)"}, {"measurement": "EC50", "setting": "[9]", "value": "0.61 µM (active)"}, {"measurement": "Ki", "setting": "fMet-Leu-Phe receptor", "value": "> 66.7 µM (inactive)"}, {"measurement": "EC50", "setting": "[10]", "value": "> 150 µM (inactive)"}, {"measurement": "AC50", "setting": "Cytochrome P450 3A4", "value": "28.2 µM (inconclusive)"}, {"measurement": "IC50", "setting": "[11]", "value": "4.97 µM (active)"}, {"measurement": "EC50", "setting": "[12]", "value": "35.9 µM (inactive)"}, {"measurement": "EC50", "setting": "[13]", "value": "9.84 µM (active)"}, {"measurement": "AC50", "setting": "Cytochrome P450 2C19", "value": "15.8 µM (inconclusive)"}, {"measurement": "EC50", "setting": "[14]", "value": "> 79.4 µM (not active)"}, {"measurement": "EC50", "setting": "[15]", "value": "17.2 µM (active)"}, {"measurement": "EC50", "setting": "[16]", "value": "> 180 µM (inactive)"}]}, {"smiles": "O=C(c1ccc(Cl)cn1)N1CCN(c2ccnc3cc(Cl)ccc23)CC1", "values": [{"measurement": "AC50", "setting": "Candida albicans [17]", "value": "< 0.195 µM (active)"}, {"measurement": "AC50", "setting": "Candida albicans [18]", "value": "3.17 µM (active)"}, {"measurement": "AC50", "setting": "Candida albicans [19]", "value": "2.47 µM (active)"}, {"measurement": "AC50", "setting": "Candida albicans [20]", "value": "0.316 µM (active)"}]}]}
